Measurements taken from patent publication US12503704B2, “Modified cell” (Oxford University Innovation Limited, priority 2019, dated 2025).
Read-outs that look alike come from different tables or passages of the source.

Experiments:
[1] = tested on: ICeuI− Glycolysis− strain; assay: D-cycloserine treatment, plate counts over time; format: cell-based, Escherichia coli; settings: 200 μg/mL D-cycloserine at time 0 and 1.5 hours
[2] = tested on: ICeuI+ Glycolysis− strain; assay: D-cycloserine treatment, plate counts over time; format: cell-based, Escherichia coli; settings: 200 μg/mL D-cycloserine at time 0 and 1.5 hours
[3] = tested on: ICeuI− Glycolysis+ strain; assay: D-cycloserine treatment, plate counts over time; format: cell-based, Escherichia coli; settings: 200 μg/mL D-cycloserine at time 0 and 1.5 hours
[4] = tested on: ICeuI+ Glycolysis+ strain; assay: D-cycloserine treatment, plate counts over time; format: cell-based, Escherichia coli; settings: 200 μg/mL D-cycloserine at time 0 and 1.5 hours
parent cells = assay: Screen of D-cycloserine concentrations to maintain SimCell purity; format: cell-based, Escherichia coli; settings: little to no increase in OD
Protocol: A protocol for minimal cell purification from Heinemann and Ankenbauer was adapted for SimCell purification (12)^a. Mixed cultures of SimCells and parent cells were treated with D-cycloserine to kill actively dividing cells. D-cycloserine was added at a concentration of 200 μg/mL and cells were left to incubate at 37° C. and shake for 1.5 hours before D-cycloserine was added again at the same concentration. After 24 hours of treatment with D-cycloserine, cells were spun down and washed twice with phosphate buffered saline (PBS). When pure SimCell cultures were induced for protein expression, 25 μg/mL D-cycloserine was added every two days to prevent parent cell growth but allow SimCells to be functional.
Further optimization of D-cycloserine concentration ensured pure SimCell populations in the following experiments, and excluded the contribution made by remaining parent cells in SimCell populations. After a screen of D-cycloserine concentrations, 25 μg/mL was determined to be the point where parent cells were killed in the culture evidenced by little to no increase in OD (Table S3) but also permitted protein production or other activities in SimCells. By using D-cycloserine which targets active, parent cells, we were able to distinguish activity from SimCells on a larger, culture-level scale for further characterization.

SalAR circuit = assay: GFP output after induction of the SalAR circuit (pSalAR-GFP) in parent cells; format: cell-based, Escherichia coli
Excerpt: FIGS. 33A-33E: The levels of GFP over time after induction of the SalAR circuit can act as an indicator for the kinetics of catechol production. Production of GFP by parent cells with the pSalAR-GFP plasmid and FIG. 33A without an additional glycolysis pathway (pSEVA224) or FIG. 33B with an additional glycolysis pathway (pSEVA224-GB3). […] FIG. 33C Ratio of fluorescent output of induced cells versus cells not induced with SA. In parent cells GFP production increased by about 1.5 and 2-fold when induced with 100 μM and 500 μM SA, respectively. FIG. 33D Catechol production by E. coli. LB agar plates with aspirin and salicylic acid have no color (top), while catechol is distinctly brown (bottom). When E. coli with pSalAR-GFP was plated on agar with inducers 2 mM Aspirin (bottom middle) or 2 mM salicylic acid (bottom right) catechol was produced and diffused out of the cell, tinting the agar brown. […] FIG. 33E The color of the supernatant darkens as inducer concentration increases, indicating production and export of catechol. SA: salicylic acid, ASA: acetylsalicylic acid (aspirin).

[5] = tested on: fibroblasts; A549, Mo59K, and RD cancer cells
[6] = tested on: fibroblasts; A549, Mo59K, and RD cancer cells; assay: Cell viability assay with supplements, all mammalian cell lines; settings: PBS control
[7] = tested on: A549 lung cancer cell line; assay: Cell viability assay (crystal violet); format: cell-based; settings: catechol at concentrations as low as 100 μM, 24 hours
[8] = tested on: glioblastoma (Mo59K) cancer cell line; assay: Cell viability assay (crystal violet); format: cell-based; settings: catechol at concentrations as low as 100 μM, 24 hours
[9] = tested on: rhabdomyosarcoma (RD) cancer cell line; assay: Cell viability assay (crystal violet); format: cell-based; settings: catechol at concentrations as low as 100 μM, 24 hours
[10] = tested on: fibroblast control cell line (Fibroblasts); assay: Cell viability assay (crystal violet); format: cell-based; settings: catechol at concentrations as low as 100 μM, 24 hours

Which CFU/mL ([1]; time 0 hr) does the source give for `N[C@@H]1CONC1=O` [D-cycloserine] here?
Its CFU/mL is 1.8 × 10^9 CFU/mL.

And the CFU/mL ([1]; time 1.5 hr)?
The CFU/mL was 1.1 × 10^9 CFU/mL.

What about the CFU/mL ([1]; time 5 hr) of the same molecule?
The CFU/mL was 1.3 × 10^7 CFU/mL.

And the CFU/mL ([1]; time 24 hr)?
Its CFU/mL is 1.6 × 10^7 CFU/mL.

And the CFU/mL ([2]; time 0 hr)?
The CFU/mL was 3.5 × 10^5 CFU/mL.

And the CFU/mL ([2]; time 1.5 hr)?
Its CFU/mL is 4.1 × 10^3 CFU/mL.

What about the CFU/mL ([2]; time 5 hr) of the same molecule?
The CFU/mL was 7.2 × 10^2 CFU/mL.

What about the CFU/mL ([2]; time 24 hr) of the same molecule?
Its CFU/mL is 0 CFU/mL.

What about the CFU/mL ([3]; time 0 hr) of the same molecule?
Its CFU/mL is 1.0 × 10^9 CFU/mL.

And the CFU/mL ([3]; time 1.5 hr)?
The CFU/mL was 6.9 × 10^8 CFU/mL.

What about the CFU/mL ([3]; time 5 hr) of the same molecule?
Its CFU/mL is 4 × 10^7 CFU/mL.

What about the CFU/mL ([3]; time 24 hr) of the same molecule?
Its CFU/mL is 8.3 × 10^4 CFU/mL.

And the CFU/mL ([4]; time 0 hr)?
The CFU/mL was 3.08 × 10^5 CFU/mL.

What about the CFU/mL ([4]; time 1.5 hr) of the same molecule?
The CFU/mL was 2.7 × 10^3 CFU/mL.

And the CFU/mL ([4]; time 5 hr)?
The CFU/mL was 7.5 × 10^2 CFU/mL.

And the CFU/mL ([4]; time 24 hr)?
Its CFU/mL is 0 CFU/mL.

And the “D-cycloserine concentration at which parent cells were killed while SimCell activity was permitted” value (parent cells)?
Its value is 25 µg/mL.

What does the source list for `O=C(O)c1ccccc1O` [SA, salicylic acid]?
increase in GFP production, induced versus not induced (SalAR circuit; 100 μM SA): about 1.5 fold; increase in GFP production, induced versus not induced (SalAR circuit; 500 μM SA): ~2 fold; effect of supplement alone on viability of mammalian cell lines [5]: no adverse effects; effect of supplement alone on viability of mammalian cell lines [6]: did not cause cell death

How did the “effect of supplement alone on viability of mammalian cell lines” value [5] turn out when `CC(=O)Oc1ccccc1C(=O)O` [aspirin, acetylsalicylic acid] was run?
Its value is “no adverse effects”.

How did the cell viability [7] turn out when `Oc1ccccc1O` [catechol, 1,2-dihydroxybenzene] was run?
Its cell viability is “significantly decreased the viability”.

And the cell viability [8]?
The cell viability was “significantly decreased the viability”.

And the cell viability [9]?
Its cell viability is “significantly decreased the viability”.

What about the cell viability [10] of the same molecule?
Its cell viability is “less of an adverse effect”.
